The numbers were not newly measured in PMC7575488, “Phase 1 dose-escalation study of a novel oral PI3K/mTOR dual inhibitor, LY3023414, in patients with cancer” (Investigational New Drugs, 2020), which cites them from elsewhere.

Molecules are shown by their SMILES.

The conditions of this series: cited from earlier work; for Stomatitis, mucositis, and mouth sores: clinical studies with mTOR inhibitors.

Turning to `CO[C@H]1C[C@@H]2CC[C@@H](C)[C@@](O)(O2)C(=O)C(=O)N2CCCC[C@H]2C(=O)O[C@H]([C@H](C)C[C@@H]2CC[C@@H](OCCO)[C@H](OC)C2)CC(=O)[C@H](C)/C=C(\C)[C@@H](O)[C@@H](OC)C(=O)[C@H](C)C[C@H](C)/C=C/C=C/C=C/1C` [everolimus], the “Stomatitis, mucositis, and mouth sores” value is recorded as 41%. Besides, the “Incidence of ILD” value (Japan, ref interim report on surveillance of everolimus-induced ILD in Japan) was 17.4%.

With `CO[C@H]1C[C@@H]2CC[C@@H](C)[C@@](O)(O2)C(=O)C(=O)N2CCCC[C@H]2C(=O)O[C@H]([C@H](C)C[C@@H]2CC[C@@H](OP(C)(C)=O)[C@H](OC)C2)CC(=O)[C@H](C)/C=C(\C)[C@@H](O)[C@@H](OC)C(=O)[C@H](C)C[C@H](C)/C=C/C=C/C=C/1C` [deforolimus], the “Stomatitis, mucositis, and mouth sores” value is listed as 78%.
